The record followed here is ChEMBL document CHEMBL4725274 (Bioorg Med Chem Lett, 2020).

The target of data set [1] is Substance-P receptor (Homo sapiens) (UniProt P25103). Put plainly: Binding affinity to NK1R (unknown origin) expressed in HEK293 cells assessed as reduction in cell viability in presence of p53 plasmid at N/P ratio of 1 incubated for 96 hrs by MTT assay relative to control. Type of data set: cell-based.
Data set [2] deals with HEK293. The experiment in a line: Cytotoxicity against HEK293 cells assessed as reduction in cell viability incubated for 96 hrs by MTT assay. Type of data set: cell-based. As to conditions: Homo sapiens, HEK293, 96 h.
Data set [3] can be described thus: Drug uptake in HEK293 cells at 1 uM incubated for 1 hr by flow cytometry analysis. It counts as ADME, cell-based. As to conditions: human, hek293, 1 h.
A short description of data set [4]: Drug uptake in HEK293 cells at 1 uM incubated for 1 hr by confocal microscopy analysis. Type of data set: ADME, cell-based. Conditions: human, hek293, 1 h.
For data set [5], the system named is HEK293. The experiment in a line: Activation of luciferase (unknown origin) expressed in HEK293 cells in presence of pGL3 plasmid incubated for 30 mins by luciferase reporter gene assay. Type of data set: cell-based.
For data set [6], the target named is Substance-P receptor (Homo sapiens) (UniProt P25103). Put plainly: Binding affinity to NK1R (unknown origin) expressed in HEK293 cells assessed as reduction in cell viability in presence of p53 plasmid at N/P ratio of 2 incubated for 96 hrs by MTT assay relative to control. Type of data set: cell-based.
For data set [7] the target is unchanged. The experiment in a line: Binding affinity to NK1R (unknown origin) expressed in HEK293 cells assessed as reduction in cell viability in presence of p53 plasmid at N/P ratio of 3 incubated for 96 hrs by MTT assay relative to control. It counts as cell-based.
In data set [8] the test system is HEK293. Put plainly: Cytotoxicity against HEK293 cells assessed as reduction in cell viability in presence of p53 plasmid at N/P ratio of 0.5 to 3 incubated for 96 hrs by MTT assay. As to conditions: human, hek293, 96 h. It counts as cell-based.
In data set [9] the target is Substance-P receptor (Homo sapiens) (UniProt P25103). The experiment in a line: Binding affinity to NK1R (unknown origin) expressed in HEK293 cells assessed as reduction in cell viability in presence of p53 plasmid at N/P ratio of 0.5 to 3 incubated for 96 hrs by MTT assay. Type of data set: cell-based.

Calls of active or inactive are those of the source. No cut-off for these calls is given here. Where a SMILES comes first, the peptide text is derived from it. The star is where a group is joined. Stearoyl = CCCCCCCCCCCCCCCCCC(=O)*

Sequence of Substance-P receptor (Homo sapiens) (P25103 whole entry): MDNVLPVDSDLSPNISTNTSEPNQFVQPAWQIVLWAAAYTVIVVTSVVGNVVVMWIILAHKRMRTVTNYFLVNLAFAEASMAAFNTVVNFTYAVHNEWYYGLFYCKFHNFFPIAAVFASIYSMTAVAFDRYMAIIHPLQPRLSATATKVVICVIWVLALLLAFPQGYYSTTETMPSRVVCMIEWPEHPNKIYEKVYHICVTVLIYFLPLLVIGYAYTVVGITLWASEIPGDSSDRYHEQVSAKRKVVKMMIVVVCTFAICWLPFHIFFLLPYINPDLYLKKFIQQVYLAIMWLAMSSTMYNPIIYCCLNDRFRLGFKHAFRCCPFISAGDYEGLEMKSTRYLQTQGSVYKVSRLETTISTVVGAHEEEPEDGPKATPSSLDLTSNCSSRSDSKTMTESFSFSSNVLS

With `CCCCCCCCCCCCCCCCCC(=O)N[C@@H](CCCCN)C(=O)N[C@@H](Cc1c[nH]c2ccccc12)C(=O)N[C@@H](CCCCN)C(=O)N[C@@H](CC(C)C)C(=O)N[C@@H](CCC(=O)O)C(=O)N[C@@H](CCCCN)C(=O)N[C@@H](CCCCN)C(=O)N[C@H](C(=O)NCC(=O)N[C@@H](C)C(=O)N[C@H](C(=O)N[C@@H](CC(C)C)C(=O)N[C@H](C(=O)N[C@@H](CS)C(=O)N[C@H](C(=O)N[C@@H](CC(C)C)C(=O)N[C@@H](CCCNC(=N)N)C(=O)N1CCC[C@H]1C(=O)N[C@@H](CCCCN)C(=O)N1CCC[C@H]1C(=O)N[C@@H](CCC(N)=O)C(=O)N[C@@H](CCC(N)=O)C(=O)N[C@@H](Cc1ccccc1)C(=O)N[C@@H](Cc1ccccc1)C(=O)NCC(=O)N[C@@H](CC(C)C)C(=O)N[C@@H](CCSC)C(N)=O)C(C)C)[C@@H](C)CC)C(C)C)[C@@H](C)CC` (Stearoyl-KWKLEKKIGAVLICVLRPKPQQFFGLM-NH2), the Activity in [1] was 51.6%; in data set [6], 66.7%; in data set [7], 70.2%; in the data set with HEK293 [8], “Active”. For the same compound, the EC50 in the data set on HEK293 [2] worked out at 7.5 µM. The Drug uptake result in [3] and in data set [4] was “Active” throughout. Further, the outcome in the data set on HEK293 [5] was inactive. In addition, the outcome in data set [9] was Active.
